Measured values reported in patent US8906925B2, “Pyrido[4,3-B]indoles containing rigid moieties” (Medivation Technologies, Inc., priority 2008, dated 2014).
Several values for one entry are separate records, joined by “and”; a condition that tells them apart may be missing. Equal values may be shown once. Read-outs that look alike come from different tables or passages of the source.

Legend:
[1] = target: human dopamine D2L receptor (Homo sapiens, UniProt P14416); experiment: Dopamine D2L radioligand binding ([3H]Spiperone); conditions: percent inhibition of specific binding, compound at 1 μM; for inhibition at 1 µM: read-out: Inhibition of ligand binding, Dopamine D2L; for Inhibition of ligand binding, Dopamine D2L: 1 µM
Excerpt: Non-specific binding was estimated in the presence of […] Haloperidol. Receptor proteins were filtered and washed, the filters were then counted to determine [^3H]Spiperone specifically bound. […] Biochemical assay results are presented as the percent inhibition of specific binding in Table 9.

[2] = target: T1, human recombinant serotonin (5-Hydroxytryptamine) 5-HT6 receptor (Homo sapiens, UniProt P50406); experiment: Serotonin 5-HT6 radioligand binding ([3H]LSD); conditions: for inhibition at 0.1 µM: compound at 0.1 μM; for inhibition at 0.1 µM / inhibition at 1 µM: read-out: Inhibition of ligand binding, Serotonin 5-HT6 (percent inhibition of specific binding); for inhibition at 1 µM / Inhibition of ligand binding, Serotonin 5-HT6 (percent inhibition of specific binding): compound at 1 μM; for Inhibition of ligand binding, Serotonin 5-HT6 (percent inhibition of specific binding): 1 µM
T1 construct: expressed in transfected cells; host or cells: human HeLa cells
Procedure: Compounds of the invention were incubated with 1.5 nM [3H]Lysergic acid diethylamide (LSD) for 120 min. at 37° C. […] Receptor proteins were filtered and washed, the filters were then counted to determine [3H]LSD specifically bound. Compounds were screened at 1 μM or lower, using 1% DMSO as vehicle. Biochemical assay results are presented as the percent inhibition of specific binding in Table 10.

[3] = target: human recombinant serotonin (5-Hydroxytryptamine) 5-HT7 receptor (Homo sapiens, UniProt P34969); experiment: Serotonin 5-HT7 radioligand binding ([3H]LSD); conditions: for inhibition at 1 µM: read-out: Inhibition of ligand binding, Serotonin 5-HT7 (percent inhibition of specific binding)
Excerpt: Receptor proteins were filtered and washed, the filters were then counted to determine [^3H]LSD specifically bound.

[4] = target: T2, human recombinant adrenergic α2A receptor (Homo sapiens, UniProt P08913); experiment: Adrenergic α2A radioligand binding ([3H]MK-912); conditions: compound at 1 μM
T2 construct: expressed in transfected cells; host or cells: insect Sf9 cells
T2 sequence (P08913 1-465): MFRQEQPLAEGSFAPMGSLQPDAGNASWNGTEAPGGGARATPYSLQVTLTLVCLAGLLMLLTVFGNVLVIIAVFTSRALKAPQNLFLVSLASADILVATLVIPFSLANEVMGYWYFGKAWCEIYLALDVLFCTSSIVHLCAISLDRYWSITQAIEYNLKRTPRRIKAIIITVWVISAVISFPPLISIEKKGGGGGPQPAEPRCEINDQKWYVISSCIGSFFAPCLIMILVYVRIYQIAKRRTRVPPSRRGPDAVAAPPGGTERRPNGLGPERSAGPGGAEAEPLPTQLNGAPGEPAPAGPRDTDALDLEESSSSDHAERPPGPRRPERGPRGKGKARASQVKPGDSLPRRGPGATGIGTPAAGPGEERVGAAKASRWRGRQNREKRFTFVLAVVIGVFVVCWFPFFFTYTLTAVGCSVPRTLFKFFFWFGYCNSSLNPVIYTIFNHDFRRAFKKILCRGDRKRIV
Procedure: To evaluate in radioligand binding assays the activity of compounds of the invention, human recombinant adrenergic α2A receptor expressed in insect Sf9 cells (Uhlen S et al. J Pharmacol Exp Ther. 271:1558, 1994) in a modified Tris-HCl buffer (50 mM Tris-HCl, pH 7.4, 12.5 mM MgCl2, 2 mM EDTA) was used. Compounds of invention were incubated with 1 nM [^3H]MK-912 for 60 min. at 25° C. MK912 is (2S-trans)-1,3,4,5′,6,6′,7,12b-octahydro-1′,3′-dimethyl-spiro[2H-benzofuro[2,3-a]quinolizine-2,4′(1′H)-pyrimidin]-2′(3′H)-one hydrochloride Non-specific binding was estimated in the presence of 10 μM WB-4101 (2-(2,6-Dimethoxyphenoxyethyl)aminomethyl-1,4-benzodioxane hydrochloride). Receptor proteins were filtered and washed, the filters were then counted to determine [^3H]MK-912 specifically bound. Compounds were screened at 1 μM or lower, using 1% DMSO as vehicle. Biochemical assay results are presented as the percent inhibition of specific binding in Table 9.

[5] = target: T3, human recombinant adrenergic α2B receptor (Homo sapiens, UniProt P18089); experiment: Adrenergic α2B radioligand binding ([3H]Rauwolscine); conditions: compound at 1 μM
T3 construct: expressed in transfected cells; host or cells: Chinese hamster ovary (CHO-K1) cells
T3 sequence (P18089 1-450): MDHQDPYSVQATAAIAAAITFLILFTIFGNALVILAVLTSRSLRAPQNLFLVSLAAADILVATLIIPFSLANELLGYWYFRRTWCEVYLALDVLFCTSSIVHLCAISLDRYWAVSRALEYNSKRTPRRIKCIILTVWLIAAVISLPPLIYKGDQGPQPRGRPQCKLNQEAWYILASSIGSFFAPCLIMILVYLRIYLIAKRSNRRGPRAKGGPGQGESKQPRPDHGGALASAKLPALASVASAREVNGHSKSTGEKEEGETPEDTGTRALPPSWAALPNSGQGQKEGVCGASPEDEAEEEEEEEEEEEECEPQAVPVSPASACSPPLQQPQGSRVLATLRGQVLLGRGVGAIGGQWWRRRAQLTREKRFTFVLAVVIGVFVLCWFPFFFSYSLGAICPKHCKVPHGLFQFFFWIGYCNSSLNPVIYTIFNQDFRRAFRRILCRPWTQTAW
Procedure: To evaluate in radioligand binding assays the activity of compounds of the invention, human recombinant adrenergic α2B receptor expressed in Chinese hamster ovary (CHO-K1) cells (Uhlen S et al. Eur J Pharmacol. 343(1):93, 1998) in a modified Tris-HCl buffer (50 mM Tris-HCl, pH 7.4, 12.5 mM MgCl2, 1 mM EDTA, 0.2% BSA) was used. Compounds of the invention were incubated with 2.5 nM [^3H]Rauwolscine for 60 min. at 25° C. Non-specific binding was estimated in the presence of 10 μM Prozosin. Receptor proteins were filtered and washed, the filters were then counted to determine [^3H]Rauwolscine specifically bound. Compounds were screened at 1 μM or lower, using 1% DMSO as vehicle. Biochemical assay results are presented as the percent inhibition of specific binding in Table 9.

[6] = target: T4, human recombinant serotonin (5-Hydroxytryptamine) 5-HT2A receptor (Homo sapiens, UniProt P28223); experiment: Serotonin 5-HT2A radioligand binding ([3H]Ketanserin); conditions: for inhibition at 0.1 µM: read-out: Inhibition of ligand binding, Serotonin 5-HT2A (percent inhibition of specific binding), compound at 0.1 μM; for inhibition at 1 µM: read-out: Inhibition of ligand binding, Serotonin 5-HT2A (percent inhibition of specific binding), compound at 1 μM
T4 construct: expressed in transfected cells; host or cells: Chinese hamster ovary (CHO-K1) cells
Procedure: Compounds of the invention were incubated with 0.5 nM [^3H]Ketanserin for 60 min. at 25° C. Non-specific binding was estimated in the presence of 1 μM Mianserin. Receptor proteins were filtered and washed, the filters were then counted to determine [^3H]Ketanserin specifically bound.

[7] = percent inhibition of specific binding, read-out: Inhibition of ligand binding, Adrenergic α2A
[8] = percent inhibition of specific binding, read-out: Inhibition of ligand binding, Adrenergic α2B

T4 sequence (P28223 whole entry): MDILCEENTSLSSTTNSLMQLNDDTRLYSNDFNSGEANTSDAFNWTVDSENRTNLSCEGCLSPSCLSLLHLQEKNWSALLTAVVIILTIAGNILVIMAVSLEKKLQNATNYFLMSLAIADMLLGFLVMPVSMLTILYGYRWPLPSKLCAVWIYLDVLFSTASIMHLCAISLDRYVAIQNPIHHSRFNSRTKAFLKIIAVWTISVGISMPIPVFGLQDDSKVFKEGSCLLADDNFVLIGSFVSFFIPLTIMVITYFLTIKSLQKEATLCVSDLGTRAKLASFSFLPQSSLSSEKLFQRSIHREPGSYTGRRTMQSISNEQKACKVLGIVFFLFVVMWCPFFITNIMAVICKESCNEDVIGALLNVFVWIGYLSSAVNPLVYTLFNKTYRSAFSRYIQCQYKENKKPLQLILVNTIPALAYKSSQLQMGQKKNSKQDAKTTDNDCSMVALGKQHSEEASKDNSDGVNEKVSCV
Chain of human dopamine D2L receptor (P14416 whole entry): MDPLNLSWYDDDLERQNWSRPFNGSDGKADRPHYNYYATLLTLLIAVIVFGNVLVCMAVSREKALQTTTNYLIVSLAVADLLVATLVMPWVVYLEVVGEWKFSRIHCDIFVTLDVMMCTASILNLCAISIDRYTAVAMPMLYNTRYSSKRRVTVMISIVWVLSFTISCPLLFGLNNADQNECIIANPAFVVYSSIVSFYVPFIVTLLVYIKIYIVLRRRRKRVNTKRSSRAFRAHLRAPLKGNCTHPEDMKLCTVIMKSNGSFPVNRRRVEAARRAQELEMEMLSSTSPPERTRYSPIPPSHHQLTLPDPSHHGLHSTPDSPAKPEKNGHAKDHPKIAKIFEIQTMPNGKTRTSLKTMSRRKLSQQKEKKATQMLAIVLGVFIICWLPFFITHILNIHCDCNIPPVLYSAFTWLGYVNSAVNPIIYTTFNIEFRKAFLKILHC
T1 sequence (P50406 whole entry): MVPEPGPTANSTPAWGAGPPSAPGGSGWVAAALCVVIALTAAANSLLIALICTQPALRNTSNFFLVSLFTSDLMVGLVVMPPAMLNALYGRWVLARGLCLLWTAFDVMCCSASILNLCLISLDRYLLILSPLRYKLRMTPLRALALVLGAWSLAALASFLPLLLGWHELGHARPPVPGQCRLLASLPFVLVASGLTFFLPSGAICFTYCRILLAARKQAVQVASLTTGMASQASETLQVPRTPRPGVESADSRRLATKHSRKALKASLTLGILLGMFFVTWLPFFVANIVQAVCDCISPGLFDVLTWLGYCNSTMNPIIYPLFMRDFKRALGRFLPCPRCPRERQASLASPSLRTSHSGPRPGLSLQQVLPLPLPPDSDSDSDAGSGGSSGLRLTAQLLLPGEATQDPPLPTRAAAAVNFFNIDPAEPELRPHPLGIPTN
Chain of human recombinant serotonin (5-Hydroxytryptamine) 5-HT7 receptor (P34969 whole entry): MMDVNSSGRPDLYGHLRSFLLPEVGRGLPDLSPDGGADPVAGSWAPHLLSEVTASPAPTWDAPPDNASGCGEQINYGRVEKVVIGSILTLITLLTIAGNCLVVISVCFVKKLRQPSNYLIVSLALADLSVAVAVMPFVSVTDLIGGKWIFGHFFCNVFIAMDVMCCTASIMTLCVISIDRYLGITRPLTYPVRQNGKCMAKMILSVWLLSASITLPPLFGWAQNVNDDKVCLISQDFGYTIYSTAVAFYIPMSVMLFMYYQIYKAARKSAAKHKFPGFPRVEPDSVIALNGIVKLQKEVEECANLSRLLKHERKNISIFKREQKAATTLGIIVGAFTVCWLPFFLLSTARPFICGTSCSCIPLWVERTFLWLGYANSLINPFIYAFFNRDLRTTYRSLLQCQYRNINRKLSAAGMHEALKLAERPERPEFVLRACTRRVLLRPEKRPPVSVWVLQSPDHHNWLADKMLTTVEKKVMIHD

C/C(=C\n1c2c(c3cc(C)ccc31)CN(C)CC2)c1ccc(F)cc1 [Compound 87, (E)-5-(2-(4-fluorophenyl)prop-1-enyl)-2,3,4,5-tetrahydro-2,8-dimethyl-1H-pyrido[4,3-b]indole]
inhibition at 1 µM [1]: 97%
inhibition at 0.1 µM [2]: 97%
inhibition at 1 µM [2]: 101%
inhibition at 1 µM ([3]; compound at 1 μM): 100%
inhibition at 1 µM [4, 7]: 95%
inhibition at 1 µM [5, 8]: 121%
inhibition at 0.1 µM [6]: 100%
inhibition at 1 µM [6]: 99%

CN1CCc2c(c3cc(Cl)ccc3n2C/C(=C/CCO)c2ccc(F)cc2)C1 [Compound No. 349, (E)-5-(8-chloro-2-methyl-3,4-dihydro-1H-pyrido[4,3-b]indol-5(2H)-yl)-4-(4-fluorophenyl)pent-3-en-1-ol]
Inhibition of ligand binding, Dopamine D2L [1]: 46%
inhibition at 1 µM [1]: 34%
Inhibition of ligand binding, Serotonin 5-HT6 (percent inhibition of specific binding) [2]: 103%
inhibition at 1 µM [2]: 102%
Inhibition of ligand binding, Serotonin 5-HT7 (percent inhibition of specific binding) ([3]; compound at 1 μM, 1 µM): 100%
inhibition at 1 µM ([3]; compound at 1 μM): 93%
inhibition at 1 µM [4, 7]: 97%
inhibition at 1 µM [5, 8]: 102%
Inhibition of ligand binding, Serotonin 5-HT2A (percent inhibition of specific binding) ([6]; compound at 1 μM, 1 µM): 100%
inhibition at 1 µM [6]: 97%

CCCC/C(=C\n1c2c(c3cc(Cl)ccc31)CN(C)CC2)c1ccc(F)cc1 [Compound 208, (E)-8-chloro-5-(2-(4-fluorophenyl)hex-1-enyl)-2-methyl-2,3,4,5-tetrahydro-1H-pyrido[4,3-b]indole]
inhibition at 1 µM [1]: 78%
inhibition at 1 µM [2]: 103%
inhibition at 1 µM ([3]; compound at 1 μM): 100%
inhibition at 1 µM [4, 7]: 99%
inhibition at 1 µM [5, 8]: 103%
inhibition at 1 µM [6]: 102%

CN1CCc2c(c3cc(Cl)ccc3n2CC(O)(c2ccc(F)cc2)C2CCC2)C1 (stereo not shown) [Compound 177, 2-(8-chloro-2-methyl-3,4-dihydro-1H-pyrido[4,3-b]indol-5(2H)-yl)-1-cyclobutyl-1-(4-fluorophenyl)ethanol]
inhibition at 1 µM [1]: 33%
inhibition at 1 µM [2]: 100%
inhibition at 1 µM ([3]; compound at 1 μM): 42%
inhibition at 1 µM [4, 7]: 96%
inhibition at 1 µM [5, 8]: 94%
inhibition at 1 µM [6]: 97%

CCCCC(O)(Cn1c2c(c3cc(Cl)ccc31)CN(C)CC2)c1ccc(F)cc1 (stereo not shown) [Compound 178, 1-(8-chloro-2-methyl-3,4-dihydro-1H-pyrido[4,3-b]indol-5(2H)-yl)-2-(4-fluorophenyl)hexan-2-ol]
inhibition at 1 µM [1]: 30%
inhibition at 1 µM [2]: 95%
inhibition at 1 µM ([3]; compound at 1 μM): 48%
inhibition at 1 µM [4, 7]: 88%
inhibition at 1 µM [5, 8]: 79%
inhibition at 1 µM [6]: 98%

C/C(=C\n1c2c(c3cc(C)ccc31)CN(C)CC2)c1ccc(Cl)cc1 [Compound 211, (E)-5-(2-(4-chlorophenyl)prop-1-enyl)-2,8-dimethyl-2,3,4,5-tetrahydro-1H-pyrido[4,3-b]indole]
Inhibition of ligand binding, Dopamine D2L [1]: 49%
inhibition at 1 µM [1]: 39%
inhibition at 0.1 µM [2]: 60%
inhibition at 1 µM [2]: 98%
inhibition at 1 µM ([3]; compound at 1 μM): 101%
inhibition at 1 µM [4, 7]: 97%
inhibition at 1 µM [5, 8]: 114%
inhibition at 0.1 µM [6]: 97%
inhibition at 1 µM [6]: 99%

CN1CCc2c(c3cc(Cl)ccc3n2/C=C(/c2ccc(F)cc2)C2CCC2)C1 [Compound 206, (E)-8-chloro-5-(2-cyclobutyl-2-(4-fluorophenyl)vinyl)-2-methyl-2,3,4,5-tetrahydro-1H-pyrido[4,3-b]indole]
inhibition at 1 µM [1]: 76%
inhibition at 1 µM [2]: 102%
inhibition at 1 µM ([3]; compound at 1 μM): 93%
inhibition at 1 µM [4, 7]: 96%
inhibition at 1 µM [5, 8]: 89%
inhibition at 1 µM [6]: 98%

CCC(O)(Cn1c2c(c3cc(C)ccc31)CN(C)CC2)c1ccc(F)cc1 (stereo not shown) [Compound 175, 1-(2,8-dimethyl-3,4-dihydro-1H-pyrido[4,3-b]indol-5(2H)-yl)-2-(4-fluorophenyl)butan-2-ol]
inhibition at 1 µM [1]: 24%
inhibition at 1 µM [2]: 100%
inhibition at 1 µM ([3]; compound at 1 μM): 79%
inhibition at 1 µM [4, 7]: 94%
inhibition at 1 µM [5, 8]: 96%
inhibition at 1 µM [6]: 102%

C/C(=C\n1c2c(c3cc(C)ccc31)CN(C)CC2)c1ccncc1 [Compound 88, (E)-2,3,4,5-tetrahydro-2,8-dimethyl-5-(2-(pyridin-4-yl)prop-1-enyl)-1H-pyrido[4,3-b]indole]
inhibition at 0.1 µM [2]: 82%
Inhibition of ligand binding, Serotonin 5-HT6 (percent inhibition of specific binding) [2]: 103%
inhibition at 1 µM [2]: 102%
Inhibition of ligand binding, Serotonin 5-HT7 (percent inhibition of specific binding) ([3]; compound at 0.1 μM, 0.1 µM): 75% and 97%
inhibition at 1 µM ([3]; compound at 1 μM): 93%
inhibition at 1 µM [4, 7]: 65%
inhibition at 1 µM [5, 8]: 107%
Inhibition of ligand binding, Serotonin 5-HT2A (percent inhibition of specific binding) ([6]; compound at 0.1 μM, 0.1 µM): 95%
Inhibition of ligand binding, Serotonin 5-HT2A (percent inhibition of specific binding) ([6]; compound at 1 μM, 1 µM): 101%
inhibition at 0.1 µM [6]: 87%
inhibition at 1 µM [6]: 98%

Cc1ccc2c(c1)c1c(n2CC#Cc2ccccn2)CCN(C)C1 [Compound No. 500, 2,3,4,5-tetrahydro-2,8-dimethyl-5-(3-(pyridin-2-yl)prop-2-ynyl)-1H-pyrido[4,3-b]indole]
inhibition at 1 µM [2]: 18%
inhibition at 1 µM ([3]; compound at 1 μM): 48%
inhibition at 1 µM ([4]; read-out: Inhibition of ligand binding, Adrenergic α2A (percent inhibition of specific binding)): 72%
inhibition at 1 µM ([5]; […] [3H]Rauwolscine, read-out: Inhibition of ligand binding, Adrenergic α2B (percent inhibition of specific binding)): 23%
inhibition at 1 µM [6]: 40%

CCN1CCc2c(c3cc(C)ccc3n2CC(O)c2ccc(C)cc2)C1 (racemic) [Compound 51, racemic-2-(2-ethyl-1,2,3,4-tetrahydro-8-methylpyrido[4,3-b]indol-5-yl)-1-p-tolylethanol]
inhibition at 0.1 µM [2]: 29%
inhibition at 1 µM [2]: 83%
inhibition at 1 µM ([3]; compound at 1 μM): 91%
inhibition at 1 µM [4, 7]: 91%
inhibition at 1 µM [5, 8]: 118%
inhibition at 1 µM [6]: 102%
